Experimental data: the supplement of paper PMC10883282
± gives the standard deviation of the averaged measurements.

System: SW872
Assay: relative viability vs DMSO control (72 h) (fraction); higher = more viable cells
Summary of the method: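 Sarcoma cell lines were grown in 384-well plates seeded toward 80–90% confluence and exposed 24 h later to serially diluted compound. After 72 h at 37 °C and 5% CO2, with 0.1% DMSO vehicle and a 5 µM positive control on the plates, ATPLite was read. Relative viability, given as percent growth averaged over up to triplicate wells, was rescaled so that 1 is full and 0 is none.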

Row | SMILES | relative viability (0.00017 µM) | relative viability (0.00051 µM) | relative viability (0.00152 µM) | relative viability (0.00457 µM) | relative viability (0.01372 µM) | relative viability (0.04115 µM) | relative viability (0.1235 µM) | relative viability (0.3704 µM) | relative viability (1.111 µM) | relative viability (3.333 µM) | relative viability (10 µM)
1 | O=C(Nc1cnn2ccc(N3CCC[C@@H]3c3cc(F)ccc3F)nc12)N1CC[C@H](O)C1 [Larotrectinib] | 1.09 ± 0.022 | 1.12 ± 0.052 | 1.09 ± 0.072 | 1.08 ± 0.049 | 1.05 ± 0.11 | 0.99 ± 0.076 | 1.06 ± 0.095 | 1.06 ± 0.078 | 1.03 ± 0.065 | 1.03 ± 0.056 | 0.986 ± 0.044
2 | COCc1c(-c2cc3cc(C)cc(OC)c3s2)c2c(N)ncnn2c1CN1CCNC(=O)C1 [Rogaratinib] | 1.08 ± 0.043 | 1.07 ± 0.012 | 1.06 ± 0.045 | 1.03 ± 0.013 | 1.003 ± 0.0078 | 1.03 ± 0.011 | 1.03 ± 0.026 | 0.992 ± 0.028 | 0.952 ± 0.02 | 0.815 ± 0.051 | 0.513 ± 0.0093
3 | Cn1cnc2c(F)c(Nc3ccc(Br)cc3F)c(C(=O)NOCCO)cc21 [Binimetinib] | 1.11 ± 0.046 | 1.06 ± 0.027 | 1.02 ± 0.059 | 1.05 ± 0.041 | 0.889 ± 0.038 | 0.724 ± 0.086 | 0.635 ± 0.041 | 0.584 ± 0.011 | 0.589 ± 0.02 | 0.583 ± 0.037 | 0.559 ± 0.026
4 | Cn1cc(-c2cc3c(N4CCN(c5ncc([C@@](C)(N)c6ccc(F)cc6)cn5)CC4)ncnn3c2)cn1 [Avapritinib] | 0.913 ± 0.047 | 0.95 ± 0.022 | 0.965 ± 0.041 | 0.939 ± 0.026 | 0.972 ± 0.036 | 0.941 ± 0.035 | 0.953 ± 0.032 | 0.886 ± 0.038 | 0.846 ± 0.029 | 0.766 ± 0.038 | 0.67 ± 0.028
5 | C[C@]1(O)C[C@@H](c2nc(-c3ccc4ccc(-c5ccccc5)nc4c3)c3c(N)nccn32)C1 [Linsitinib] | 1.04 ± 0.037 | 1.05 ± 0.014 | 1.03 ± 0.041 | 1 ± 0.043 | 0.995 ± 0.048 | 0.973 ± 0.027 | 0.9745 ± 0.0092 | 0.9267 ± 0.0035 | 0.914 ± 0.027 | 0.821 ± 0.028 | 0.615 ± 0.018
6 | Cc1cc(Nc2ncnc3ccc(NC4=NC(C)(C)CO4)cc23)ccc1Oc1ccn2ncnc2c1 [Tucatinib] | 1.07 ± 0.017 | 1.08 ± 0.04 | 1.08 ± 0.016 | 1.09 ± 0.037 | 1.07 ± 0.051 | 1.08 ± 0.011 | 1.08 ± 0.017 | 1.04 ± 0.035 | 1.06 ± 0.04 | 1.03 ± 0.045 | 0.994 ± 0.038
7 | Nc1cc(C(F)(F)F)c(-c2cc(N3CCOCC3)nc(N3CCOCC3)n2)cn1 [Buparlisib] | 0.994 ± 0.037 | 0.96 ± 0.046 | 0.995 ± 0.031 | 0.958 ± 0.019 | 0.964 ± 0.025 | 0.946 ± 0.055 | 0.901 ± 0.016 | 0.765 ± 0.035 | 0.543 ± 0.021 | 0.249 ± 0.014 | 0.158 ± 0.0092
8 | C[C@@H]1CCN(C(=O)CC#N)C[C@@H]1N(C)c1ncnc2[nH]ccc12 [Tofacitinib] | 1.12 ± 0.03 | 1.08 ± 0.035 | 1.1 ± 0.028 | 1.09 ± 0.056 | 1.08 ± 0.032 | 1.04 ± 0.081 | 1.03 ± 0.056 | 1.02 ± 0.063 | 0.946 ± 0.068 | 0.887 ± 0.095 | 0.747 ± 0.064
9 | COc1cc2/c(=N/c3ccc(Br)cc3F)nc[nH]c2cc1OCC1CCN(C)CC1 [Vandetanib] | 1.02 ± 0.046 | 1.01 ± 0.052 | 1 ± 0.036 | 1.02 ± 0.041 | 1.03 ± 0.02 | 0.987 ± 0.051 | 0.964 ± 0.0059 | 0.91 ± 0.025 | 0.802 ± 0.03 | 0.5804 ± 0.0048 | 0.00997 ± 0.0034
10 | CCCS(=O)(=O)Nc1ccc(F)c(C(=O)c2c[nH]c3ncc(-c4ccc(Cl)cc4)cc23)c1F [Vemurafenib] | 1.05 ± 0.096 | 1.07 ± 0.099 | 1.08 ± 0.074 | 1.07 ± 0.067 | 1.07 ± 0.08 | 1.02 ± 0.033 | 0.863 ± 0.059 | 0.706 ± 0.063 | 0.642 ± 0.058 | 0.528 ± 0.034 | 0.342 ± 0.015
11 | C=CC(=O)N1CCC([C@@H]2CCNc3c(C(N)=O)c(-c4ccc(Oc5ccccc5)cc4)nn32)CC1 [Zanubrutinib] | 1.01 ± 0.032 | 1.03 ± 0.028 | 0.996 ± 0.038 | 1.01 ± 0.029 | 0.9666 ± 0.0096 | 0.954 ± 0.046 | 0.883 ± 0.066 | 0.923 ± 0.026 | 0.912 ± 0.034 | 0.929 ± 0.029 | 0.844 ± 0.022
12 | CC(=O)Nc1cccc(-n2c(=O)n(C3CC3)c(=O)c3c(Nc4ccc(I)cc4F)n(C)c(=O)c(C)c32)c1 [Trametinib] | 1.11 ± 0.046 | 1.05 ± 0.055 | 0.856 ± 0.059 | 0.674 ± 0.046 | 0.597 ± 0.0061 | 0.607 ± 0.034 | 0.593 ± 0.008 | 0.593 ± 0.022 | 0.562 ± 0.015 | 0.549 ± 0.031 | 0.564 ± 0.014
13 | C=CC(=O)N1CCC[C@@H](n2nc(-c3ccc(Oc4ccccc4)cc3)c3c(N)ncnc32)C1 [Ibrutinib] | 1.06 ± 0.016 | 1.06 ± 0.017 | 1.06 ± 0.064 | 1.01 ± 0.022 | 1.01 ± 0.042 | 0.976 ± 0.037 | 0.98 ± 0.081 | 0.923 ± 0.024 | 0.9099 ± 0.0036 | 0.84 ± 0.049 | 0.583 ± 0.027
14 | Cc1ccc(F)c(NC(=O)Nc2ccc(-c3cccc4[nH]nc(N)c34)cc2)c1 [Linifanib] | 1.07 ± 0.042 | 1.06 ± 0.048 | 1.07 ± 0.028 | 1.02 ± 0.027 | 1.012 ± 0.0025 | 1.01 ± 0.015 | 1.01 ± 0.053 | 0.991 ± 0.022 | 1.02 ± 0.033 | 1.05 ± 0.049 | 1.03 ± 0.076
15 | CC[C@H](Nc1ncnc2[nH]cnc12)c1nc2cccc(F)c2c(=O)n1-c1ccccc1 [Idelalisib] | 1.09 ± 0.073 | 1.13 ± 0.052 | 1.1 ± 0.034 | 1.1 ± 0.046 | 1.11 ± 0.052 | 1.08 ± 0.055 | 1.07 ± 0.066 | 1.04 ± 0.087 | 0.945 ± 0.043 | 0.876 ± 0.051 | 0.746 ± 0.036
16 | CC(C)(C)c1cc(NC(=O)Nc2ccc(-c3cn4c(n3)sc3cc(OCCN5CCOCC5)ccc34)cc2)no1 [Quizartinib] | 1.05 ± 0.023 | 1.045 ± 0.0071 | 1.05 ± 0.0053 | 1.041 ± 0.0092 | 1.051 ± 0.0052 | 1.04 ± 0.012 | 1.04 ± 0.019 | 1.03 ± 0.037 | 1.029 ± 0.01 | 1.032 ± 0.0056 | 1.02 ± 0.018
17 | CNC(=O)c1cc(Oc2ccc(NC(=O)Nc3ccc(Cl)c(C(F)(F)F)c3)c(F)c2)ccn1 [Regorafenib] | 1.11 ± 0.07 | 1.12 ± 0.039 | 1.12 ± 0.034 | 1.14 ± 0.025 | 1.14 ± 0.017 | 1.119 ± 0.011 | 1.11 ± 0.013 | 1.07 ± 0.061 | 0.96 ± 0.027 | 0.824 ± 0.058 | 0.662 ± 0.027
18 | CNC(=O)c1ccc(-c2cnc3ncc(Cc4ccc5ncccc5c4)n3n2)cc1F [Capmatinib] | 1.04 ± 0.041 | 1.03 ± 0.026 | 1.04 ± 0.048 | 1.03 ± 0.025 | 1.05 ± 0.049 | 1.05 ± 0.022 | 1.03 ± 0.043 | 1.06 ± 0.029 | 0.987 ± 0.024 | 1.02 ± 0.012 | 1 ± 0.019
